# According to the supplement of paper PMC13380429:
# ± gives the standard deviation of the averaged measurements.
# Assays:
# Conditions in all cases: 72 h
# [1] = tested on: HepG2; assay: drug sensitivity score (DSS) for viability; higher = more toxic; extreme values may be limits of the assay
# [2] = tested on: Caco-2; assay: as above
# [3] = tested on: U2OS; assay: as above
# [4] = tested on: Calu-3; assay: as above
# [5] = tested on: Vero E6; assay: as above
# [6] = tested on: HepG2; assay: cell viability relative to DMSO; higher = less toxic
# [7] = tested on: Caco-2; assay: as above
# [8] = tested on: U2OS; assay: as above
# [9] = tested on: Calu-3; assay: as above
# [10] = tested on: Vero E6; assay: as above
# [11] = tested on: HepG2; assay: relative viability EC50 (midpoint between 100% and the lowest measured viability); higher = less toxic
# [12] = tested on: Caco-2; assay: as above
# [13] = tested on: U2OS; assay: as above
# [14] = tested on: Calu-3; assay: as above
# [15] = tested on: Vero E6; assay: as above
Structure (SMILES),drug sensitivity score [1],drug sensitivity score [2],drug sensitivity score [3],drug sensitivity score [4],drug sensitivity score [5],cell viability ([6]; 1 nM),cell viability ([6]; 10 nM),cell viability ([6]; 100 nM),cell viability ([6]; 1000 nM),cell viability ([6]; 10000 nM),cell viability ([7]; 1 nM),cell viability ([7]; 10 nM),cell viability ([7]; 100 nM),cell viability ([7]; 1000 nM),cell viability ([7]; 10000 nM),cell viability ([8]; 1 nM),cell viability ([8]; 10 nM),cell viability ([8]; 100 nM),cell viability ([8]; 1000 nM),cell viability ([8]; 10000 nM),cell viability ([9]; 1 nM),cell viability ([9]; 10 nM),cell viability ([9]; 100 nM),cell viability ([9]; 1000 nM),cell viability ([9]; 10000 nM),cell viability ([10]; 1 nM),cell viability ([10]; 10 nM),cell viability ([10]; 100 nM),cell viability ([10]; 1000 nM),cell viability ([10]; 10000 nM),relative viability EC50 [11],relative viability EC50 [12],relative viability EC50 [13],relative viability EC50 [14],relative viability EC50 [15]
O=C(Nc1nc(-c2cc(Cl)cs2)c(N2CCN(C3CCCCC3)CC2)s1)c1cnc(N2CCC(C(=O)O)CC2)c(Cl)c1 [avatrombopag],0,0,0,0,0,99.4%,109%,115%,98%,110%,94.9%,88.7%,102%,105%,107%,103%,95.5%,104%,103%,95.1%,96.2%,100%,93.9%,102%,88.9%,100%,95%,102%,102%,92%,> 10 µM,> 10 µM,> 10 µM,> 10 µM,> 10 µM
O=C(N[C@@H](Cc1c[nH]c2ccccc12)C(=O)O)c1ccc(Cl)cc1 [benzotript],0,0,0,0,0,99.7%,98.1%,102%,103%,108%,99.9%,102%,101%,100%,99.4%,96%,99.5%,94.3%,101%,95.9%,87.8%,99.4%,98%,100%,108%,104%,99.3%,98.1%,102%,107%,> 10 µM,> 10 µM,> 10 µM,> 10 µM,> 10 µM
CC1(C)CCC2=C(O1)c1ccccc1C(=O)C2=O [beta-lapachone],5.2,4.4,4.8,0,0,107%,99.3%,94.4%,99.5%,7.5%,101%,96.5%,91.9%,96.3%,29.9%,106%,100%,101%,96.5%,21.5%,109%,91.4%,110%,106%,91.2%,104%,105%,101%,102%,91.6%,3.12 µM,2.75 µM,2.83 µM,> 10 µM,> 10 µM
O=C1c2ccccc2C(=O)C1c1ccc(Br)cc1 [bromindione],0,0,0,0,0,103%,103%,107%,108%,99.5%,105%,70.7%,95.6%,80.8%,96.3%,104%,99.7%,102%,96.5%,102%,107%,93.8%,103%,95.6%,106%,102%,103%,103%,104%,99.4%,> 10 µM,> 10 µM,> 10 µM,> 10 µM,> 10 µM
CCN(CC)CCNC(=O)c1cc(Br)c(N)cc1OC [bromopride],0,0,0,0,0,94.6%,102%,99%,105%,101%,89.7%,96.1%,97.4%,94.6%,102%,101%,99.1%,105%,99.4%,101%,102%,99%,95.8%,104%,111%,95.9%,100%,92.9%,99.8%,104%,> 10 µM,> 10 µM,> 10 µM,> 10 µM,> 10 µM
CC[C@H](C)[C@@H]1NC(=O)[C@H](Cc2ccc(OC)cc2)NC(=O)CCCSC[C@@H](C(=O)N2CCC[C@H]2C(=O)N[C@@H](CC(C)C)C(=O)NCC(N)=O)NC(=O)[C@H](CC(N)=O)NC(=O)[C@H](CCC(N)=O)NC1=O [carbetocin],0,0.3,0,0.6,0,103%,103%,91.3%,99.7%,93.3%,99.7%,98.6%,97.3%,90.5%,87.4%,94.9%,91.3%,98.4%,95.2%,100%,103%,104%,102%,106%,75.7%,104%,104%,99.3%,101%,95.8%,> 10 µM,> 10 µM,> 10 µM,> 10 µM,> 10 µM
C[N+](C)(C)CC(O)CC(=O)[O-] (stereo not given) [carnitine-(D/L)],2.2,0.7,0,0,0,98.1%,82.5%,92.1%,86.3%,80.9%,105%,77.6%,100%,81.8%,89.7%,94.1%,94.4%,87.2%,80.6%,95.9%,96.9%,102%,109%,99.9%,94.3%,100%,101%,91%,106%,104%,> 10 µM,> 10 µM,> 10 µM,> 10 µM,> 10 µM
O=C(O)COCCN1CCN(C(c2ccccc2)c2ccc(Cl)cc2)CC1 (stereo not given) [cetirizine],0,0,0,0,0,100 ± 1.4%,100 ± 1.1%,101 ± 5.7%,103 ± 3.5%,102 ± 4.1%,91 ± 0.14%,81.8 ± 7.7%,97.8 ± 6.4%,88 ± 12%,107 ± 5.2%,95.5 ± 3.3%,98.05 ± 0.071%,96.2 ± 0.14%,93.8 ± 4.5%,102 ± 1.4%,94.7 ± 5.4%,105 ± 1.1%,100.25 ± 0.071%,95.8 ± 8.7%,102 ± 2.5%,93.7 ± 5.7%,97.3 ± 1.6%,88.5 ± 4.5%,95.3 ± 2.4%,100 ± 1.8%,> 10 µM,> 10 µM,> 10 µM,> 10 µM,> 10 µM
C[C@@H]1C[C@H]2[C@@H]3C[C@H](F)C4=CC(=O)C=C[C@]4(C)[C@@]3(Cl)[C@@H](O)C[C@]2(C)[C@H]1C(=O)COC(=O)C(C)(C)C [clocortolone-pivalate],0,0,0,0,0,98.8%,93.6%,99.1%,103%,108%,90.6%,99.2%,91%,100%,112%,95.7%,93%,90.1%,90.7%,93.4%,92.9%,88.2%,102%,96.2%,97.3%,101%,90.6%,99.6%,95.4%,110%,> 10 µM,> 10 µM,> 10 µM,> 10 µM,> 10 µM
CN(C)[C@@H](CCOc1cccc2ccccc12)c1ccccc1 [dapoxetine],0,0,0,1.3,0.1,94.1%,104%,97.1%,95.7%,89%,98.5%,96%,101%,102%,89.6%,103%,103%,103%,98.2%,89.3%,103%,104%,105%,91.7%,81.3%,97.5%,101%,98.7%,98.8%,88.6%,> 10 µM,> 10 µM,> 10 µM,> 10 µM,> 10 µM
COc1ccc2c(c1)CN(C)CC2c1ccc(Cl)c(Cl)c1 (stereo not given) [diclofensine],0,0.6,0,0,0,101%,98.8%,95.9%,103%,97.2%,96.6%,94%,86%,95.6%,83.5%,99.3%,103%,93.3%,100%,93.2%,103%,106%,107%,101%,87.9%,96%,99.3%,94.5%,95.7%,91.1%,> 10 µM,> 10 µM,> 10 µM,> 10 µM,> 10 µM
C[C@H]1c2cccc(O)c2C(=O)C2=C(O)[C@]3(O)C(=O)C(C(N)=O)=C(O)[C@@H](N(C)C)[C@@H]3[C@@H](O)[C@@H]21 [doxycycline],0,0.05 ± 0.071,0,0,0,100 ± 2.8%,94.3 ± 5.3%,98.7 ± 9.5%,108 ± 21%,94.8 ± 4.3%,90.2 ± 11%,96.8 ± 0.85%,92.6 ± 3.1%,90.1 ± 5.4%,88 ± 0.92%,96.5 ± 1.9%,98.8 ± 1.1%,96.2 ± 2%,101 ± 2.3%,98.6 ± 4%,95.8 ± 5.4%,108 ± 3.1%,107 ± 3.3%,104 ± 2.9%,99.8 ± 8%,101 ± 2.9%,95.8 ± 4.3%,101 ± 4.5%,97.8 ± 9.4%,100 ± 1.8%,> 10 µM,> 10 µM,> 10 µM,> 10 µM,> 10 µM
N[C@@]1(C(=O)O)CC[C@H]2[C@H](C(=O)O)[C@H]21 [eglumetad],0,0,0,0,0,113%,92.5%,102%,97.6%,116%,107%,104%,93.8%,102%,97.2%,101%,101%,97.3%,96.6%,96%,95.7%,102%,97.3%,93.2%,104%,99%,99%,94.9%,100%,96.6%,> 10 µM,> 10 µM,> 10 µM,> 10 µM,> 10 µM
